In paper PMC8776094, “Reactive Oxygen Species Production Is Responsible for Antineoplastic Activity of Osmium, Ruthenium, Iridium and Rhodium Half-Sandwich Type Complexes with Bidentate Glycosyl Heterocyclic Ligands in Various Cancer Cell Models” (International Journal of Molecular Sciences, 2022):
“Also recorded” adds a separate entry of the source.

What was measured:
Type in all cases: cell-based
[1] = tested on: A2780 ovarian cancer cells; test: MTT reduction assay, 4 h, rapid toxicity, A2780; settings: 4 h treatment; for Maximum Inhibition (%) A2780: MTT assay, tested 0.001694-33.3333 µM, ND = not detected or cannot be calculated
Method: (§1) The compounds were tested between 0.001694 and 33.3333 µM, using a 4-hour-long MTT test to assess rapid toxicity and a 48-hour-long SRB assay to assess the long-term effects of the inhibition of proliferation (cytostasis). The MTT assay assesses the activity of mitochondrial complex I and detects rapid, direct toxicity, as well as indicating apoptosis and necrosis. The SRB assay measures the total protein content that is proportional to cell numbers; therefore, the assay can detect changes in cell numbers and can thus be used as a readout for cell proliferation. The SRB assay was performed after 48 h of treatment (with the exception of L428 cells, which were tested for 96 h due to their slower proliferation rate). In this setting, the SRB assay informs us of long-term changes to cell proliferation. We assessed the maximal inhibition within that concentration range, and descriptive statistics were performed. We performed a one-way ANOVA, followed by the Kruskal–Wallis test, regardless of the normal or non-normal distribution of the data. Due to the large number of significance values, the results of the significance calculations are provided in an Excel spreadsheet at https://figshare.com/s/28d14597d5041f08eb08 (accessed on 6 January 2022), among other primary data of the study. Where possible, nonlinear regression was performed on the curves to determine the IC50 values ((inhibitor) vs. response—variable slope (four parameters) method with Graphpad v8.0.1). […] In Table 5, we added the IC50 values that we determined for a set of 4 active ruthenium half-sandwich complexes we identified previously, to be used in subsequent structure-activity relationship (SAR) analyses.
(§2) A2780 cells were cultured in RMPI 1640 medium, supplemented with 10% fetal calf serum, 2 mM glutamine, and 1% penicillin-streptomycin.
The MTT reduction assay measures the activity of mitochondrial complex I and can be used to detect apoptosis and necrosis. The assay was performed similarly to the method used in [72]. Briefly, cells were plated in 96-well plates the day before the assay. Cells were treated with the compounds for 4 h, then MTT was added at 0.5 mg/mL final concentration and the cells were incubated at 37 °C in a cell incubator. The culture media were removed and the reduced MTT dye was dissolved in dimethyl-sulfoxide (DMSO) and plates were measured in a plate photometer (Thermo Scientific Multiscan GO spectrophotometer, Waltham, MA, USA) at 540 nm. On each plate, wells were designed to contain untreated/vehicle-treated cells. In the calculations, the readings for these wells were considered as 1 and all readings were expressed relative to these values.

[2] = tested on: A2780 ovarian cancer cells; test: SRB assay, 48 h, cytostasis, A2780; settings: for cytostatic activity on A2780 cells in SRB assay (in words): 48 h treatment; for IC50 / A2780 Max. Inh. (%): SRB assay, 48 h; for A2780 Max. Inh. (%): ND = not detected
Method: as §1, §2
The assay was performed similarly to the method used in [73]. Cells were seeded in 96-well plates the day before the assay. Cells were treated with the compounds for 48 h, with the exception of L428, where 96 h of treatment was applied. Cells were fixed with 10% trichloroacetic acid (TCA). Fixed cells were washed in distilled water 3 times, followed by staining with SRB (0.4 m/V% dissolved in 1% acetic acid) for 10 min. The stained cells were washed in 1% acetic acid 5 times; the acetic acid was removed, and the cells were left to dry. Protein-bound SRB was released by adding 100 µL 10 mM Tris base. Plates were measured in a plate photometer (Thermo Scientific Multiscan GO spectrophotometer, Waltham, MA, USA) at 540 nm. On each plate, wells were designed to contain untreated cells. In calculations, the readings for these wells were considered as 1 and all readings were expressed relative to these values.
Statistical analysis was performed using the 8.0.1 version of Graphpad Prism. Values were tested for normal distribution, using the d’Agostino and Pearson normality test. When necessary, values were log-normalized or were normalized using the Box-Cox normalization method or using a two-step transformation, as indicated in the figure captions. Nonlinear regression was performed using the built-in “[Inhibitor] vs. Response—Variable slope (four parameters), least-square fit” utility of Graphpad, yielding the IC50 and Hill slope values.

A2780 cells = test: Annexin V-propidium iodide double staining, cell death, flow cytometry; settings: 2 h treatment; Os-3 2.68 µM, Os-4 3.25 µM, Os-5 2.84 µM, Os-6 0.70 µM, Ir-6 1.63 µM
Method: We selected the Os-3, Os-4, Os-5, Os-6 and Ir-6 complexes for further study, based on their strong cytostatic activity on the ovarian cancer cell lines, but there was a lack of activity on primary fibroblasts. […] Similar to previous approaches, as propidium iodide or Annexin V positivity is an early feature of cell death, we treated cells for 2 h and then performed double-staining with Annexin V—propidium iodide.
The proportion of dead cells was assessed using the Annexin V–propidium iodide assay and was measured using flow cytometry with a BD FacsCalibur (BD Biosciences, Franklin Lakes, NJ, USA) instrument and the FITC Annexin V/Dead Cell Apoptosis kit (Life Technologies, Eugene, OR, USA), according to the manufacturer’s instructions, in a process similar to that in [43]. Quadrants were set, based on the FITC and PI values observed for the vehicle-treated cells.
Here, 1 × 10^6 A2780 cells were plated in 6-well plates and were treated with the corresponding complexes (Os-3 at 2.68 µM, Os-4 at 3.25 µM, Os-5 at 2.84 µM, Os-6 at 0.70 µM, Ir-6 at 1.63 µM,) and 300 µM hydrogen peroxide for 2 h. Cells were then stained with Annexin V and propidium iodide (PI), then, cells were subjected to flow cytometry as described in the Materials and Methods section. The percentage of cells in the quadrants was plotted. Data are represented as average ± SD, from three biological replicates; individual assays were performed in duplicate. Normality was tested, on all datasets. A two-step transformation was used to achieve normal distribution. Statistical significance was determined using a two-way ANOVA test; all measurement points were compared with each other. ** and *** indicate statistically significant differences between vehicle-treated (control) and treated cells ([…] or 300 µM H2O2) corresponding to the same quadrant (e.g., vehicle-treated double-negative cells vs. Os-3-treated double-negative cells) at p < 0.01 and p < 0.001, respectively.

SMILES	toxicity on A2780 cells in short-term MTT assay (in words) [1]	Maximum Inhibition (%) A2780 [1]	cytostatic activity on A2780 cells in SRB assay (in words) [2]	IC50 [2]	A2780 Max. Inh. (%) [2]	induction of cell death (Annexin V / propidium iodide positivity) (A2780 cells)
Cc1c(C)c(C)[c-](C)c1C.F[P-](F)(F)(F)(F)F.O=C(OCC1OC(n2cc(-c3ccccn3)nn2)C(OC(=O)c2ccccc2)C(OC(=O)c2ccccc2)C1OC(=O)c1ccccc1)c1ccccc1.[Cl][Ir+2] (mixture of isomers) [Ir-6]	exerted toxicity in higher concentrations	43.07%	pronounced; also recorded: displayed cytostatic activity	1.64 µM	100%	None of the complexes induced cell death
Cc1ccc(C(C)C)cc1.F[P-](F)(F)(F)(F)F.O=C(OCC1OC(c2nnc(-c3ccccn3)o2)C(OC(=O)c2ccccc2)C(OC(=O)c2ccccc2)C1OC(=O)c1ccccc1)c1ccccc1.[Cl][Os+] (mixture of isomers) [Os-3]		37.42%	exerted cytostatic activity	2.52 µM	100%	None of the complexes induced cell death
Cc1ccc(C(C)C)cc1.F[P-](F)(F)(F)(F)F.O=C(OCC1OC(c2nnc(-c3ccccn3)o2)C(OC(=O)c2ccccc2)C(OC(=O)c2ccccc2)C1OC(=O)c1ccccc1)c1ccccc1.[Cl][Os+] (mixture of isomers) [Os-4]		26.67%	exerted cytostatic activity	3.23 µM	100%	None of the complexes induced cell death
Cc1ccc(C(C)C)cc1.F[P-](F)(F)(F)(F)F.O=C(OC1COC(c2nnc(-c3ccccn3)o2)C(OC(=O)c2ccccc2)C1OC(=O)c1ccccc1)c1ccccc1.[Cl][Os+] (mixture of isomers) [Os-5]		31.38%	exerted cytostatic activity	2.81 µM	100%	None of the complexes induced cell death
Cc1ccc(C(C)C)cc1.F[P-](F)(F)(F)(F)F.O=C(OCC1OC(n2cc(-c3ccccn3)nn2)C(OC(=O)c2ccccc2)C(OC(=O)c2ccccc2)C1OC(=O)c1ccccc1)c1ccccc1.[Cl][Os+] (mixture of isomers) [Os-6]		21.38%	exerted cytostatic activity	0.7 µM	100%	None of the complexes induced cell death
